Like-named read-outs stand apart in the source and are kept apart here.
Experiments:
5-HT2AR [1] = molecular target: T1, 5-HT2AR (Homo sapiens, UniProt P28223); test: 5-HT2AR binding affinity (Ki), Table 8
T1 construct: expressed in transfected cells; host or cells: Flp-In 293 T-Rex (tetracycline inducible)

5-HT2BR [2] = molecular target: T2, 5-HT2BR (Homo sapiens, UniProt P41595); test: Calcium flux assay (FLIPR, Fluo-4), 5-HT2BR stable cell line; type: cell-based; conditions: for 5-HT2BR Rmax ± S.E.M: value in parentheses
T2 construct: expressed in transfected cells; host or cells: Flp-In 293 T-Rex (tetracycline inducible)
Protocol: Stable cell lines for 5-HT2AR, 5-HT2BR and 5-HT2CR generated using the Flp-In 293 T-Rex Tetracycline inducible system (Invitrogen). Tetracycline-induced cells were seeded in 384-well poly-L-lysine plates at a density of 10,000 cells/well in DMEM containing 1% dialyzed FBS at least 16-24 hr before the calcium flux assay. On the day of the assay, the cells were incubated (20 ul/well) for 1 hr at 37° C. with Fluo-4 Direct dye (Invitrogen) reconstituted in FLIPR buffer (1×HBSS, 2.5 mM probenecid, and 20 mM HEPES, pH 7.4). After dye loading, cells were placed in a FLIPR^TETRA fluorescence imaging plate reader ([…]). Drug dilutions were prepared at 3× final concentration in drug buffer (1×HBSS, 20 mM HEPES, 0.1% BSA, 0.01% ascorbic acid, pH 7.4) and aliquoted into 384-well plates and placed in the FLIPR^TETRA for drug stimulation. The fluidics module and plate reader of the FLIPR^TETRA were programmed to read baseline fluorescence for 10s (1 read/s), then 10 ul of drug/well was added and read for 5 min (1 read/s). Fluorescence in each well was normalized to the average of the first 10 reads (i.e., baseline fluorescence). Then, the maximum-fold increase, which occurred within the first 60 s after drug addition, was determined and fold over baseline was plotted as a function of drug concentration. Data were normalized to % 5-HT stimulation and analyzed using “log(agonist) vs. response” in GraphPad Prism 9.0.

5-HT2AR [3] = molecular target: T1, 5-HT2AR; test: Calcium flux assay (FLIPR, Fluo-4), 5-HT2AR stable cell line; type: cell-based; conditions: for 5-HT2AR Rmax ± S.E.M: value in parentheses
Protocol: Stable cell lines for 5-HT2AR, 5-HT2BR and 5-HT2CR generated using the Flp-In 293 T-Rex Tetracycline inducible system (Invitrogen). Tetracycline-induced cells were seeded in 384-well poly-L-lysine plates at a density of 10,000 cells/well in DMEM containing 1% dialyzed FBS at least 16-24 hr before the calcium flux assay. On the day of the assay, the cells were incubated (20 ul/well) for 1 hr at 37° C. with Fluo-4 Direct dye (Invitrogen) reconstituted in FLIPR buffer (1×HBSS, 2.5 mM probenecid, and 20 mM HEPES, pH 7.4). After dye loading, cells were placed in a FLIPR^TETRA fluorescence imaging plate reader (Molecular Dynamics). Drug dilutions were prepared at 3× final concentration in drug buffer (1×HBSS, 20 mM HEPES, 0.1% BSA, 0.01% ascorbic acid, pH 7.4) and aliquoted into 384-well plates and placed in the FLIPR^TETRA for drug stimulation. The fluidics module and plate reader of the FLIPR^TETRA were programmed to read baseline fluorescence for 10s (1 read/s), then 10 ul of drug/well was added and read for 5 min (1 read/s). Fluorescence in each well was normalized to the average of the first 10 reads (i.e., baseline fluorescence). Then, the maximum-fold increase, which occurred within the first 60 s after drug addition, was determined and fold over baseline was plotted as a function of drug concentration. Data were normalized to % 5-HT stimulation and analyzed using “log(agonist) vs. response” in GraphPad Prism 9.0.

5-HT2CR = molecular target: T3, 5-HT2CR (Homo sapiens, UniProt P28335); test: 5-HT2CR binding affinity (Ki), Table 8; conditions: read-out: 5-HT2CR Ki
T3 sequence (P28335 33-458): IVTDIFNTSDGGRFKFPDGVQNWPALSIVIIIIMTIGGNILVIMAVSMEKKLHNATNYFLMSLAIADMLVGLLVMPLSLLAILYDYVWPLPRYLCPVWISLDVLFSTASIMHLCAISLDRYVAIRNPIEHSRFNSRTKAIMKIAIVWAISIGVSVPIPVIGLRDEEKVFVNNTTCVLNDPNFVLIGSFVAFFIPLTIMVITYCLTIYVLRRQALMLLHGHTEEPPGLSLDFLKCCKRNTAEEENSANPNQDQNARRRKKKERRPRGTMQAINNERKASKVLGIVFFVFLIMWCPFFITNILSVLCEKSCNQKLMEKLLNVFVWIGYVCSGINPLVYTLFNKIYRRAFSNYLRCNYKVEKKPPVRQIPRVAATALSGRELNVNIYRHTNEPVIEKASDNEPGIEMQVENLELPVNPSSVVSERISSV

5-HT2BR [4] = molecular target: T2, 5-HT2BR; test: 5-HT2BR binding affinity (Ki), Table 8
[5] = bracketed value below Ki, read-out: 5-HT2BR pKi ± S.E.M (converted)
[6] = bracketed value below EC50, read-out: 5-HT2AR pEC50 ± S.E.M (converted)
[7] = bracketed value below EC50, read-out: 5-HT2BR pEC50 ± S.E.M (converted)

T2 sequence (P41595 whole entry): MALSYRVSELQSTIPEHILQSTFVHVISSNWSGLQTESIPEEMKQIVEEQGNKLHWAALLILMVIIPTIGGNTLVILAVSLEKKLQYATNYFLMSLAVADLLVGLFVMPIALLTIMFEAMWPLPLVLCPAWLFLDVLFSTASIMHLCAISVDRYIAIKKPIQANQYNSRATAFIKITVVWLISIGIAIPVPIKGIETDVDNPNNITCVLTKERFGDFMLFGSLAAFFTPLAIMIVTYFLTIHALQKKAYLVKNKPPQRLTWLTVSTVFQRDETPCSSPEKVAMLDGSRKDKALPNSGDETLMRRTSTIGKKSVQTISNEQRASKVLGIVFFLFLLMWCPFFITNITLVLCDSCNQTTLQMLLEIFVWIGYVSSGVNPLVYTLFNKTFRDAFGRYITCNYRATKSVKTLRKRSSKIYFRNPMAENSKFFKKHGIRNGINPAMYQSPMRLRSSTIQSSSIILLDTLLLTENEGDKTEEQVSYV
T1 sequence (P28223 whole entry): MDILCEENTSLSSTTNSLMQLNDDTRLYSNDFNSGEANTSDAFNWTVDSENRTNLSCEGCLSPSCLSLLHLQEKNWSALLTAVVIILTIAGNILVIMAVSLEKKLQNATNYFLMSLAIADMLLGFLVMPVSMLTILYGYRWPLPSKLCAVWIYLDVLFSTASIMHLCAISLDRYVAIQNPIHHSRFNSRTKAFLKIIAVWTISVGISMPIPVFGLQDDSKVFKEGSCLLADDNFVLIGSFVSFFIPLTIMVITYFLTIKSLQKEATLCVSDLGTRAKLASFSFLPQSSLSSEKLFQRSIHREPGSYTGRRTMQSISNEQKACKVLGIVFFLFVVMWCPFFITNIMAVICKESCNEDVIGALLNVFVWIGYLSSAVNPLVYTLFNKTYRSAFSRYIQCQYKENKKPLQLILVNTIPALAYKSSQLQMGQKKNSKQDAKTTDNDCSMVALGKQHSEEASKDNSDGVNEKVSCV

| Structure (SMILES) | Ki (5-HT2AR [1]; read-out: 5-HT2AR Ki) [µM] | EC50 (5-HT2BR [2]; read-out: 5-HT2BR EC50) [nM] | 5-HT2BR Rmax ± S.E.M (5-HT2BR [2]) | EC50 (5-HT2AR [3]; read-out: 5-HT2AR EC50) [nM] | 5-HT2AR Rmax ± S.E.M (5-HT2AR [3]) | Ki (5-HT2CR) [µM] | Ki (5-HT2BR [4]; read-out: 5-HT2BR Ki) [nM] | 5-HT2BR EC50 (5-HT2BR [2]) | Ki (5-HT2AR [1]; bracketed value below Ki, read-out: 5-HT2AR pKi ± S.E.M (converted)) [µM] | Ki (5-HT2BR [4]; [5]) [nM] | 5-HT2AR EC50 (5-HT2AR [3]) | EC50 (5-HT2AR [3]; [6]) [nM] | EC50 (5-HT2BR [2]; [7]) [nM] |
| --- | --- | --- | --- | --- | --- | --- | --- | --- | --- | --- | --- | --- | --- |
| C[C@H]1C=C(c2c[nH]c3ncccc23)CN(C2CC2)C1 [compound 30, (S)-3-(1-cyclopropyl-5-methyl-1,2,5,6-tetrahydropyridin-3-yl)-1H-pyrrolo[2,3-b]pyridine] | > 10 | 4360 | (58.3% | 3540 | (29.1% | > 10 | 2540 | – | – | – | – | – | – |
| CCCCN1CC(c2cncc(C)c2)=C[C@@H](C)C1 [Compound 13, 1-Butyl-5,5′-dimethyl-1,2,5,6-tetrahydro-3,3′-bipyridine] | > 10 | – | – | > 10000 | – | > 10 | 580 | antagonist | – | – | – | – | – |
| CCCCCN1CC(c2cnn(C)c2)=CC(C)C1 (racemic) [Compound 3, 3-Methyl-5-(1-methyl-1H-pyrazol-4-yl)-1-pentyl-1,2,3,6-tetrahydropyridine] | – | – | – | > 10000 | – | – | 1480 | antagonist | – | – | – | – | – |
| C[C@H]1C=C(c2cncc(Cl)c2)CN(C)C1 (stereo in doubt) [Compound 18, 5′-chloro-1,5-dimethyl-1,2,5,6-tetrahydro-3,3′-bipyridine] | 3.21 | – | – | 870 | (13.7% | > 10 | – | antagonist | 3.16 | 138 | – | – | – |
| C[C@H]1C=C(c2c[nH]c3ncccc23)CN(Cc2cnco2)C1 [compound 48, (S)-5-((3-methyl-5-(1H-pyrrolo[2,3-b]pyridin-3-yl)-3,6-dihydropyridin-1(2H)-yl)methyl)oxazole] | > 10 | 8860 | (48.8% | – | – | > 10 | 8010 | – | – | – | antagonist | – | – |
| CCCCN1CC(c2cncc(Cl)c2)=C[C@@H](C)C1 [Compound 11, 1-butyl-5′-chloro-5-methyl-1,2,5,6-tetrahydro-3,3′-bipyridine] | > 10 | – | – | 4240 | (25.0% | > 10 | – | antagonist | – | 372 | – | – | – |
| CCCN1CC(c2c[nH]c3ncccc23)=C[C@H](C)C1 [Compound 24, 3-(5-methyl-1-propyl-1,2,5,6-tetrahydropyridin-3-yl)-1H-pyrrolo[2,3-b]pyridine] | > 10 | – | – | 860 | (14.8% | > 10 | 1670 | antagonist | – | – | – | 871 | – |
| C[C@H]1C=C(c2c[nH]c3ncccc23)CN(C2COC2)C1 [compound 28, (S)-3-(5-methyl-1-(oxetan-3-yl)-1,2,5,6-tetrahydropyridin-3-yl)-1H-pyrrolo[2,3-b]pyridine] | > 10 | 5240 | (48.1% | > 10000 | – | > 10 | 9890 | – | – | 9770 | – | – | – |
| CCCCCN1CC(c2cncc(Cl)c2)=C[C@@H](C)C1 [Compound 9, 5′-chloro-5-methyl-1-pentyl-1,2,5,6-tetrahydro-3,3′-bipyridine] | > 10 | – | – | 7630 | (40.2% | > 10 | 560 | antagonist | – | 550 | – | 7760 | – |
| C[C@H]1C=C(c2c[nH]c3ncccc23)CN(CC2(C)COC2)C1 [compound 26, (S)-3-(5-methyl-1-((3-methyloxetan-3-yl)methyl)-1,2,5,6-tetrahydropyridin-3-yl)-1H-pyrrolo[2,3-b]pyridine] | > 10 | 9230 | (71.0% | > 10000 | – | > 10 | 5830 | – | – | 5750 | – | – | 9120 |
| C[C@@H]1C=C(c2c[nH]c3ncccc23)CN(C2CC2)C1 [compound 29, (R)-3-(1-cyclopropyl-5-methyl-1,2,5,6-tetrahydropyridin-3-yl)-1H-pyrrolo[2,3-b]pyridine] | 6.14 | 5150 | (74.7% | 1360 | (63.0% | > 10 | 1660 | – | – | – | – | – | – |
| Cc1cncc(C2=C[C@@H](C)CN(CC3(O)COC3)C2)c1 [Compound 5, 3-((5,5′-Dimethyl-5,6-dihydro-[3,3′-bipyridin]-1(2H)-yl)methyl)oxetan-3-ol] | > 10 | – | – | – | – | > 10 | – | antagonist | – | 3240 | – | – | – |
| CCCCN1CC(c2cncc(Cl)c2)=C[C@H](C)C1 [Compound 12, 1-butyl-5′-chloro-5-methyl-1,2,5,6-tetrahydro-3,3′-bipyridine] | 4.54 | – | (69.6% | – | (53.0% | > 10 | – | – | – | 7.08 | – | 427 | 22.9 |
| C[C@@H]1C=C(c2c[nH]c3ncccc23)CN(C2COC2)C1 [compound 27, (R)-3-(5-methyl-1-(oxetan-3-yl)-1,2,5,6-tetrahydropyridin-3-yl)-1H-pyrrolo[2,3-b]pyridine] | > 10 | – | – | > 10000 | – | > 10 | > 10000 | antagonist | – | – | – | – | – |
| C[C@H]1C=C(c2cncc(Cl)c2)CN(CC2(O)COC2)C1 [Compound 8, 3-((5′-Chloro-5-methyl-5,6-dihydro-[3,3′-bipyridin]-1(2H)-yl)methyl)oxetan-3-ol] | > 10 | – | (20.4% | – | – | > 10 | – | – | – | 79.4 | – | – | 126 |
| Cc1cncc(C2=C[C@H](C)CN(CC3(O)COC3)C2)c1 (stereo in doubt) [Compound 6, 3-((5,5′-Dimethyl-5,6-dihydro-[3,3′-bipyridin]-1(2H)-yl)methyl)oxetan-3-ol] | > 10 | 120 | (16.0% | – | – | > 10 | – | – | – | 245 | – | – | 115 |
| CC1C=C(c2cnn(C)c2)CN(CC2(C)COC2)C1 (racemic) [Compound 1, 3-Methyl-5-(1-methyl-1H-pyrazol-4-yl)-1-((3-methyloxetan-3-yl)methyl)-1,2,3,6-tetrahydropyridine] | – | 1940 | 48.9% | – | – | – | 3880 | – | – | – | – | – | – |
| CCc1cncn1CCN1CC(c2cccn2C)=CC(C)C1 (racemic) [Compound 2, 1-(2-(5-Ethyl-1H-imidazol-1-yl)ethyl)-3-methyl-5-(1-methyl-1H-pyrrol-2-yl)-1,2,3,6-tetrahydropyridine] | 6.23 | 2980 | 56.3% | – | – | – | 2670 | – | – | – | antagonist | – | – |
| Cc1cncc(C2=CC(C)CN(CC3(O)COC3)C2)c1 (racemic) [Compound 4, 3-((5,5′-Dimethyl-5,6-dihydro-[3,3′-bipyridin]-1(2H)-yl)methyl)oxetan-3-ol] | – | – | – | – | – | – | 670 | antagonist | – | – | – | – | – |
| C[C@H]1C=C(c2c[nH]c3ncccc23)CNC1 [compound 39, (S)-3-(5-methyl-1,2,5,6-tetrahydropyridin-3-yl)-1H-pyrrolo[2,3-b]pyridine] | – | 1230 | (26.8% | 520 | (14.0% | – | 1810 | – | – | – | – | 513 | – |

Source: patent publication US20230365542A1, “Selective Agonists of 5-HT2A Receptor and Methods of Use” (Yale University, priority 2020, published 2023)
